Results on five molecules are retold here after patent US10780090B2, “Heteroaryl compounds useful as inhibitors of SUMO activating enzyme” (Millennium Pharmaceuticals, Inc., priority 2014, dated 2020).

Each structure is given as a SMILES string.

In the assay the target is recombinant human SAE enzyme (Homo sapiens (Human), UniProt Q9UBT2). In words: SAE HTRF enzyme assay. Type of assay: biochemical. The conditions noted are these: for Percent Inhibition: SAE inhibition at compound concentration 0.111 μM; for IC50: SAE inhibition, class symbols, legend in nM. The method in brief: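 HTRF read-out using Eu-cryptate anti-Flag and allophycocyanin anti-GST antibodies, added with EDTA stop buffer and read after 2 h at 24 °C. The preceding reaction ran 105 min at 24 °C: 0.11 nM recombinant SAE, 0.5 μM ATP, Sumo-Flag, Ubc9-GST, pH 7.5. Values given as single-concentration inhibition or IC50.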
Chain of recombinant human SAE enzyme (Q9UBT2 whole entry): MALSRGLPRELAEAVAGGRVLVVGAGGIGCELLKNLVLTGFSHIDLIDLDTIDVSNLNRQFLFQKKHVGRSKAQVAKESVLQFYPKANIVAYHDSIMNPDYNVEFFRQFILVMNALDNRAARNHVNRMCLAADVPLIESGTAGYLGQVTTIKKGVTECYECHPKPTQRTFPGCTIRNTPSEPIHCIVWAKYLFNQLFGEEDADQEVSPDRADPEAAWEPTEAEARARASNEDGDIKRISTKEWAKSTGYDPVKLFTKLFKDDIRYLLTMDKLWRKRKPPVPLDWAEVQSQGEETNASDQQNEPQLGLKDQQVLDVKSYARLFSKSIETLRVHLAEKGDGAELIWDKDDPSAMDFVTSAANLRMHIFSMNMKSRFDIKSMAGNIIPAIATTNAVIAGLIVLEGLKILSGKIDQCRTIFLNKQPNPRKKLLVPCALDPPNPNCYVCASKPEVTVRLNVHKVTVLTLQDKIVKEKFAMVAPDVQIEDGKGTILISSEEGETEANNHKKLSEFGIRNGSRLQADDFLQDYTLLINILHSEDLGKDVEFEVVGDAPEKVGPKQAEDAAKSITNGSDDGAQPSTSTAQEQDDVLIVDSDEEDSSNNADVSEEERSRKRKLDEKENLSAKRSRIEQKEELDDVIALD
Chain of recombinant human SAE enzyme (Q9UBE0 whole entry partner): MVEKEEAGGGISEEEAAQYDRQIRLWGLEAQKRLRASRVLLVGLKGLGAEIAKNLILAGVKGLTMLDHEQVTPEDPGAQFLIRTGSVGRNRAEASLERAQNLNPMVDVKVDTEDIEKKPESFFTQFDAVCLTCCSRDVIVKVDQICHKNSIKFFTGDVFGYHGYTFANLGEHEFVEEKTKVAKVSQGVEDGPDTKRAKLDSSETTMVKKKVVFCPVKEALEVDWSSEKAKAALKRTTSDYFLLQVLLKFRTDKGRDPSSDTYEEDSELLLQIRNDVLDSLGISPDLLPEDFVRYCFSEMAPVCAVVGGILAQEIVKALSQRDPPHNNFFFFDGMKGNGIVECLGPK

Regarding `Cc1sc(C(=O)c2cncnc2N[C@@H]2C[C@H](COS(N)(=O)=O)[C@@H](O)C2)cc1[C@@H]1OCCc2cccnc21` (mixture of isomers) [I-285, [(1R,2S,4R)-4-{[5-({4-[(8S)-5,8-dihydro-6H-pyrano[3,4-b]pyridin-8-yl]-5-methyl-2-thienyl}carbonyl)pyrimidin-4-yl]amino}-2-hydroxycyclopentyl]methyl sulfamate and [(1R,2S,4R)-4-{[5-({4-[(8R)-5,8-dihydro-6H-pyrano[3,4-b]pyridin-8-yl]-5-methyl-2-thienyl}carbonyl)pyrimidin-4-yl]amino}-2-hydroxycyclopentyl]methyl sulfamate], the “Percent Inhibition” value came out at 100% and the IC50 was below 10 nM.

Turning to `Cc1sc(C(=O)c2cncnc2N[C@@H]2C[C@H](COS(N)(=O)=O)[C@@H](O)C2)cc1[C@@H]1OCCc2ccc(Cl)nc21` (mixture of isomers) [I-286, [(1R,2S,4R)-4-{[5-({4-[(8S)-2-chloro-5,8-dihydro-6H-pyrano[3,4-b]pyridin-8-yl]-5-methyl-2-thienyl}carbonyl)pyrimidin-4-yl]amino}-2-hydroxycyclopentyl]methyl sulfamate and [(1R,2S,4R)-4-{[5-({4-[(8R)-2-chloro-5,8-dihydro-6H-pyrano[3,4-b]pyridin-8-yl]-5-methyl-2-thienyl}carbonyl)pyrimidin-4-yl]amino}-2-hydroxycyclopentyl]methyl sulfamate], the “Percent Inhibition” value is listed as 99% and the IC50 was below 10 nM.

Consider `Cc1nc2c(s1)CCO[C@H]2c1cc(C(=O)c2cncnc2N[C@@H]2C[C@H](COS(N)(=O)=O)[C@@H](O)C2)sc1C` (mixture of isomers) [I-287, [(1R,2S,4R)-2-hydroxy-4-{[5-({5-methyl-4-[(4S)-2-methyl-6,7-dihydro-4H-pyrano[3,4-d][1,3]thiazol-4-yl]-2-thienyl}carbonyl)pyrimidin-4-yl]amino}cyclopentyl]methyl sulfamate and [(1R,2S,4R)-2-hydroxy-4-{[5-({5-methyl-4-[(4R)-2-methyl-6,7-dihydro-4H-pyrano[3,4-d][1,3]thiazol-4-yl]-2-thienyl}carbonyl)pyrimidin-4-yl]amino}cyclopentyl]methyl sulfamate], for which the “Percent Inhibition” value stood at 97% and the concentration for half-maximal inhibition (IC50) was below 10 nM.

For the molecule `Cc1sc(C(=O)c2cncnc2N[C@@H]2C[C@H](COS(N)(=O)=O)[C@@H](O)C2)cc1[C@@H]1OCC(F)(F)c2ccc(Cl)cc21.Cc1sc(C(=O)c2cncnc2N[C@@H]2C[C@H](COS(N)(=O)=O)[C@@H](O)C2)cc1[C@H]1OCC(F)(F)c2ccc(Cl)cc21` (mixture of isomers) [I-288, [(1R,2S,4R)-4-{[5-({4-[(1R)-7-chloro-4,4-difluoro-3,4-dihydro-1H-isochromen-1-yl]-5-methyl-2-thienyl}carbonyl)pyrimidin-4-yl]amino}-2-hydroxycyclopentyl]methyl sulfamate and [(1R,2S,4R)-4-{[5-({4-[(1S)-7-chloro-4,4-difluoro-3,4-dihydro-1H-isochromen-1-yl]-5-methyl-2-thienyl}carbonyl)pyrimidin-4-yl]amino}-2-hydroxycyclopentyl]methyl sulfamate], the “Percent Inhibition” value is 99% and the concentration for half-maximal inhibition (IC50) is below 10 nM.

As to `NS(=O)(=O)OC[C@H]1C[C@@H](Nc2ncncc2C(=O)c2cc([C@@H]3OCC(F)(F)c4ccc(Cl)cc43)cs2)C[C@@H]1O.NS(=O)(=O)OC[C@H]1C[C@@H](Nc2ncncc2C(=O)c2cc([C@H]3OCC(F)(F)c4ccc(Cl)cc43)cs2)C[C@@H]1O` (mixture of isomers) [I-289, [(1R,2S,4R)-4-{[5-({4-[(1R)-7-chloro-4,4-difluoro-3,4-dihydro-1H-isochromen-1-yl]-2-thienyl}carbonyl)pyrimidin-4-yl]amino}-2-hydroxycyclopentyl]methyl sulfamate and [(1R,2S,4R)-4-{[5-({4-[(1S)-7-chloro-4,4-difluoro-3,4-dihydro-1H-isochromen-1-yl]-2-thienyl}carbonyl)pyrimidin-4-yl]amino}-2-hydroxycyclopentyl]methyl sulfamate], the “Percent Inhibition” value came out at 98% and the IC50 was below 10 nM.
